The text below walks through data of patent publication US7056491B2, “Monoterpenes and sesquiterpenes as chemotherapeutic and radiation sensitizers and immunomodulators” (Wisconsin Alumni Research Foundation, priority 2000, dated 2006).

SMILES strings stand for the structures.

In one series the test system is T98G cells. The experiment in a line: Clonogenic survival, POH pretreatment then doxorubicin, T98G. Format: cell-based, human. Conditions: T98G. The procedure: Referring to FIG. 29, subconfluent cells of T98G cells were treated with varying concentrations of perillyl alcohol (0.1 mM–0.5 mM) for 48 hours and subsequently treated with the indicated dose of doxorubicin (0.01 uM–0.1 uM) for 48 hours. At the end of the treatment, POH-pretreated and untreated cells in the presence and absence of doxorubicin, were harvested, washed with PBS, plated at the desired cell number and incubated for two weeks. The colonies were stained with crystal violet and quantitated. Survival was determined as the ratio of plating efficiencies for each irradiated group to that of the untreated control. […] Doxorubicin at concentrations over 0.1 uM appeared to be toxic to the cells.

A further series relates to rat mammary carcinoma. Conditions: limonene, Haag et al.; cited from earlier work.
The conditions of series [1]: rats, 10% limonene diet for 10 weeks; cited from earlier work.
Series [2] relates to 21–26 kD proteins, including small GTP-binding proteins. The conditions noted are these: dose dependent, distal to HMG-CoA reductase; cited from earlier work.

As for `COc1cccc2c1C(=O)c1c(O)c3c(c(O)c1C2=O)C[C@@](O)(C(=O)CO)C[C@@H]3O[C@H]1C[C@H](N)[C@H](O)[C@H](C)O1` [Doxorubicin, reference compound], the “concentrations toxic to the cells” value in the series with T98G cells is “over 0.1 uM”.
Take `C=C(C)[C@H]1CC=C(C)CC1` [limonene]: in the series on rat mammary carcinoma, the “effect on advanced rat mammary carcinomas” value is given as “regression of advanced rat mammary carcinomas”. The “plasma levels of terpene metabolites” value in series [1] was 270 µM. Moreover, the “isoprenylation of 21–26 kD proteins” value in series [2] is “inhibit isoprenylation”.
